Laboratory results published in patent US20240382600A1, “BIFUNCTIONAL DEGRADERS COMPRISING A TEAD BINDER” (Novartis AG, priority 2021, published 2024).

What was measured:
[1] = test system: NCI-H2052 Tet-On shYAP_2371 pLenti6 MCAT_Luc cells; test: Proliferation assay (resazurin/AlamarBlue), NCI-H2052; type: cell-based; conditions: Homo sapiens; NCI-H2052, 72 hours
From the text: (§1) NCI-H2052 mesothelioma cells (RRID: CVCL_1518) bearing Hippo-pathway inactivating mutations upstream of YAP (homozygous deletion of LATS2 and mutation of NF2) were obtained from ATCC (American Type Culture Collection), while SF268 glioma cells (RRID: CVCL_1689) overexpressing YAP due to genomic amplification were obtained from the NCI (National Cancer Institute). MKN-45 gastric adenocarcinoma cells (RRID: CVCL_0434) genomically deleted for YAP were obtained from the JCRB (Japanese Collection of Research Bioresources) Cell Bank.
(§2) Stock solutions of compounds were prepared at a concentration of 10 mM in DMSO and stored at 4° C. Where necessary to afford a full dose-response curve, the stock solutions were pre-diluted in DMSO to 1′000-fold the desired reduced start concentration. On the day after cell seeding, eleven 2-fold serial dilutions of each compound were dispensed directly into the cell assay plates using a HP 300D non-contact Digital Dispenser (TECAN). The final concentration of DMSO was normalized to 0.1% in all wells.
(§3) After incubation for 72 hours at 37° C., compound-mediated modulation of cell viability was quantified as follows. […] To enable differentiation of cytotoxic from cytostatic compound effects, the number of viable cells on the day of compound addition (day 0) was assessed in a separate cell plate and used to assess the extent of cell viability suppression as described in the following section.
(§4) For data analysis, the assay background value determined in wells containing medium, but no cells, was subtracted from all data points.
(§5) The extent of growth inhibition and potential cell kill was assessed by comparing the resorufin levels in compound-treated cells with those present at the time of compound addition. To this end, the following conditional concept was programmatically applied in HELIOS to calculate % growth (% G) for each compound-treated well: % G=(T−V0)/V0))*100 when T<V0, and % G=(T−V0)/(V−V0)))*100 when T≥V0, where V0 is the viability level at time of compound addition, while V and T represent vehicle-control and compound-treated viability levels, respectively, at the end of the compound incubation. 100%, 0% and −100% signify absence of growth inhibition, growth stasis, and complete cell kill, respectively. Compound concentrations leading to half-maximal growth inhibition (GI50) and residual cell viability at the highest tested compound concentration (Data(cmax), expressed in percent) were routinely calculated.

[2] = test system: YAP-dependent transcription in NCI-H2052 Tet-On shYAP_2371 pLenti6 MCAT_Luc cells; test: YAP reporter gene activity assay (MCAT-Luc), NCI-H2052; type: cell-based; conditions: Homo sapiens, 24 hrs
MKN-45/Ubc-luc cells = test: Proliferation assay (resazurin/AlamarBlue), MKN-45; type: cell-based; conditions: Homo sapiens; MKN-45, 72 hours
From the text: as §1
As a specificity control, MKN-45 cells were stably transduced with a Ubc-Luc reporter construct, in which constitutive expression of firefly luciferase is driven by the promoter of the ubiquitin C housekeeping gene.
as §2, §3, §4, §5

[3] = test system: MKN-45/Ubc-luc cells (unspecific inhibition of luciferase expression or activity); test: Reporter gene assay specificity control (Ubc-Luc), MKN-45; type: cell-based; conditions: Homo sapiens; MKN-45/Ubc-luc specificity control, 24 hrs
From the text: as §1
As a specificity control, MKN-45 cells were stably transduced with a Ubc-Luc reporter construct, in which constitutive expression of firefly luciferase is driven by the promoter of the ubiquitin C housekeeping gene. The resulting cell line, MKN-45/Ubc-luc, was selected and maintained in growth medium (RPMI 1640 (Amimed Cat #1-41F01-I), 2 mM L-Glutamine (Amimed Cat #5-10K50-H), 10% fetal calf serum (Amimed Cat #2-01F30-I Lot K08815P), 1% MEM Non-essential amino acids (Amimed Cat #5-13K00-H), 1× Penicillin/Streptomycin (Amimed Cat #4-01F00-H)) containing 1 μg/ml blasticidin (Gibco Cat #A11139-03).
as §2
The ability of compounds to inhibit YAP-dependent transcription was assessed in NCI-H2052 Tet-On shYAP_2371 pLenti6 MCAT_Luc and SF268-MCAT_Luc, dox-i-shYAPLevy (Clone 13) cells, while specificity (lack of unspecific inhibition of luciferase expression or activity) was assessed in MKN-45/Ubc-luc cells. The individual cell lines were seeded at 2′500 cells/20 μl/well into white-wall, clear-bottom 384-well plates (Greiner, Cat #781098) and incubated over night at 37° C. prior to addition of serial compound dilutions as described above. Following incubation for 24 hrs at 37° C., compound-mediated modulation of reporter-gene activity was quantified 5 min after addition 20 μL […] BrightGlo (Promega Cat #E2620), by measuring luminescence intensity on a multi-mode plate-reader (TECAN) with an integration time of 100 ms.
as §4

[4] = biological target: Avi-humanTEAD4^217-434 / Cy5 labeled humanYAP^60-100 (Homo sapiens (Human), UniProt Q15561); test: In-vitro biochemical TR-FRET assay (TEAD4/YAP); type: binding; conditions: 1 h at room temperature
Protocol: N-terminus Cy5 labeled humanYAP^60-100 (20 nM) was then added to this preparation. Compounds were dissolved at 10 mM in 100% DMSO and serial dilutions were made in 100% DMSO. The diluted compound solutions were incubated in white 384-well plates (Greiner Bio-One) for 1 h at room temperature with the above described mix. The final DMSO concentration present in the assay was 1%. […] The IC50 values were estimated by fitting the data by nonlinear fit regression (GraphPad Prism).

[5] = test system: YAP-dependent transcription in SF268-MCAT_Luc_dox-i-shYAPLevy (Clone 13) cells; test: YAP reporter gene activity assay (MCAT-Luc), SF268; type: cell-based; conditions: Homo sapiens, SF-268; SF268 MCAT_Luc, 24 hrs
[6] = test system: SF268-MCAT_Luc_dox-i-shYAPLevy (Clone 13) cells; test: Proliferation assay (resazurin/AlamarBlue), SF268; type: cell-based; conditions: Homo sapiens, SF-268; SF268, 72 hours
From the text: as §1, §2, §3, §4, §5

Avi-humanTEAD4^217-434 / Cy5 labeled humanYAP^60-100, sequence (Q15561 217-434): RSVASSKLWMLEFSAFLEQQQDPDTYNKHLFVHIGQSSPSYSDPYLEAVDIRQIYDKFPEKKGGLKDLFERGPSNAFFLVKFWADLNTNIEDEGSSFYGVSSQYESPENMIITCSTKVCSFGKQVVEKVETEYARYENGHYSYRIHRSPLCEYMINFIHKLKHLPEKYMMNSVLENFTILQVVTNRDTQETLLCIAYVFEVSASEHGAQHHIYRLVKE

Compound | GI50 [1] [nM] | IC50 [2] [nM] | GI50 (MKN-45/Ubc-luc cells) [nM] | IC50 [3] [nM] | IC50 [4] [nM] | IC50 [5] [nM] | GI50 [6] [nM]
COc1ccc(C(N)=O)c(-c2c(Cl)c(F)cc3c2[C@H](C)[C@@](CN[C@H]2CC[C@H](C(=O)O)CC2)(c2ccccc2)O3)c1F (atropisomer, axis not shown) [C-I, (1S,4r)-4-((((2S,3S,4S)-4-(6-carbamoyl-2-fluoro-3-methoxyphenyl)-5-chloro-6-fluoro-3-methyl-2-phenyl-2,3-dihydrobenzofuran-2-yl)methyl)amino)cyclohexane-1-carboxylic acid] | 170 | 130 | > 2000 | > 2000 | 2.2 | 180 | > 2000
COc1ccc(C(=O)N2CCC(OC3CCN(CCNC(=O)[C@H]4CC[C@H](NC[C@]5(c6ccccc6)Oc6cc(F)c(Cl)c(-c7c(C(N)=O)ccc(OC)c7F)c6[C@@H]5C)CC4)CC3)CC2)cc1N1CCC(=O)NC1=O (atropisomer, axis not shown) [Example 4, 2-((2S,3S,4S)-5-chloro-2-((((1r,4S)-4-((2-(4-((1-(3-(2,4-dioxotetrahydropyrimidin-1(2H)-yl)-4-methoxybenzoyl)piperidin-4-yl)oxy)piperidin-1-yl)ethyl)carbamoyl)cyclohexyl)amino)methyl)-6-fluoro-3-methyl-2-phenyl-2,3-dihydrobenzofuran-4-yl)-3-fluoro-4-methoxybenzamide] | 140 | 49 | > 20000 | > 20000 | 1.1 | 1.7 | 33
COc1ccc(C(=O)N2CCC(OC3CN(C(=O)[C@H]4CC[C@H](NC[C@]5(c6ccccc6)Oc6cc(F)c(Cl)c(-c7c(C(N)=O)ccc(OC)c7F)c6[C@@H]5C)CC4)C3)CC2)cc1N1CCC(=O)NC1=O (atropisomer, axis not shown) [Example 8, 2-((2S,3S,4S)-5-chloro-2-((((1r,4S)-4-(3-((1-(3-(2,4-dioxotetrahydropyrimidin-1(2H)-yl)-4-methoxybenzoyl)piperidin-4-yl)oxy)azetidine-1-carbonyl)cyclohexyl)amino)methyl)-6-fluoro-3-methyl-2-phenyl-2,3-dihydrobenzofuran-4-yl)-3-fluoro-4-methoxybenzamide] | 310 | 120 | > 20000 | > 20000 | 1.6 | 3.1 | 120
COc1ccc(C(=O)N2CCC(CCC3CCN(C(=O)[C@H]4CC[C@H](NC[C@]5(c6ccccc6)Oc6cc(F)c(Cl)c(-c7c(C(N)=O)ccc(OC)c7F)c6[C@@H]5C)CC4)CC3)CC2)cc1N1CCC(=O)NC1=O (atropisomer, axis not shown) [Example 27, 2-((2S,3S,4S)-5-chloro-2-((((1r,4S)-4-(4-(2-(1-(3-(2,4-dioxotetrahydropyrimidin-1(2H)-yl)-4-methoxybenzoyl)piperidin-4-yl)ethyl)piperidine-1-carbonyl)cyclohexyl)amino)methyl)-6-fluoro-3-methyl-2-phenyl-2,3-dihydrobenzofuran-4-yl)-3-fluoro-4-methoxybenzamide] | 3.8 | 0.66 | > 2000 | > 2000 | 4 | 0.17 | 5
COc1ccc(C(N)=O)c(-c2c(Cl)c(F)cc3c2[C@H](C)[C@@](CN[C@H]2CC[C@H](C(=O)N4CCC(CC5CCN(C(=O)COc6ccc(Cl)c(N7CCC(=O)NC7=O)c6)CC5)CC4)CC2)(c2ccccc2)O3)c1F (atropisomer, axis not shown) [Example 28, 2-((2S,3S,4S)-5-chloro-2-((((1r,4S)-4-(4-((1-(2-(4-chloro-3-(2,4-dioxotetrahydropyrimidin-1(2H)-yl)phenoxy)acetyl)piperidin-4-yl)methyl)piperidine-1-carbonyl)cyclohexyl)amino)methyl)-6-fluoro-3-methyl-2-phenyl-2,3-dihydrobenzofuran-4-yl)-3-fluoro-4-methoxybenzamide] | 16 | 4.4 | > 2000 | > 2000 | 2.7 | 0.92 | 31
COc1ccc(C(N)=O)c(-c2c(Cl)c(F)cc3c2[C@H](C)[C@@](CN[C@H]2CC[C@H](C(=O)N4CCC(CC5CCN(C(=O)COc6ccc(F)c(N7CCC(=O)NC7=O)c6)CC5)CC4)CC2)(c2ccccc2)O3)c1F (atropisomer, axis not shown) [Example 29, 2-((2S,3S,4S)-5-chloro-2-((((1r,4S)-4-(4-((1-(2-(3-(2,4-dioxotetrahydropyrimidin-1(2H)-yl)-4-fluorophenoxy)acetyl)piperidin-4-yl)methyl)piperidine-1-carbonyl)cyclohexyl)amino)methyl)-6-fluoro-3-methyl-2-phenyl-2,3-dihydrobenzofuran-4-yl)-3-fluoro-4-methoxybenzamide] | 13 | 3.8 | > 200 | > 2000 | 3.3 | 0.64 | 17
COc1ccc(OCC(=O)N2CCC(CC3CCN(C(=O)[C@H]4CC[C@H](NC[C@]5(c6ccccc6)Oc6cc(F)c(Cl)c(-c7c(C(N)=O)ccc(OC)c7F)c6[C@@H]5C)CC4)CC3)CC2)cc1N1CCC(=O)NC1=O (atropisomer, axis not shown) [Example 30, 2-((2S,3S,4S)-5-chloro-2-((((1r,4S)-4-(4-((1-(2-(3-(2,4-dioxotetrahydropyrimidin-1(2H)-yl)-4-methoxyphenoxy)acetyl)piperidin-4-yl)methyl)piperidine-1-carbonyl)cyclohexyl)amino)methyl)-6-fluoro-3-methyl-2-phenyl-2,3-dihydrobenzofuran-4-yl)-3-fluoro-4-methoxybenzamide] | 27 | 6.9 | > 200 | > 2000 | 2.6 | 1.1 | 35
